Experimental data published in paper PMC12360161, “Identifying 14-3-3 interactome binding sites with deep learning” (Digital Discovery, 2025).
Read-outs that look alike come from different tables or passages of the source. Where a SMILES comes first, the peptide text is derived from it. Where no end group is shown, it is not given here. [ ]: non-standard residue; d: D form. The star is where a group is joined. 5FAM = O=C1OC2(c3ccc(O)cc3Oc3cc(O)ccc32)c2ccc(C(=O)*)cc21; pT = C[C@@H](OP(=O)(O)O)[C@H](N)C(=O)O; pS = N[C@@H](COP(=O)(O)O)C(=O)O; Ahx = NCCCCCC(=O)O

Tests used:
[1] = target: T1, full-length (FL) human 14-3-3γ protein (Homo sapiens, UniProt P61981); assay: Fluorescence anisotropy (FA) assay of FAM-labeled peptides binding to 14-3-3γ; details: for Kd: 14-3-3γ FL dilution series (starting at 500 μM) to 10 nM FAM-labeled peptide, 10 mM HEPES pH 7.4, 150 mM NaCl, 0.1% Tween20, 1 mg/mL BSA, room temperature, Hill fit, mean ± SD; for Binding in the FA assay (in words): 14-3-3γ, 10 nM FAM-labeled peptide
T1 construct: The full-length (FL) human 14-3-3γ protein was expressed from a pPROEX plasmid; His6; made in house; host or cells: E. coli BL21(DE3)
T1 sequence (P61981 1-247): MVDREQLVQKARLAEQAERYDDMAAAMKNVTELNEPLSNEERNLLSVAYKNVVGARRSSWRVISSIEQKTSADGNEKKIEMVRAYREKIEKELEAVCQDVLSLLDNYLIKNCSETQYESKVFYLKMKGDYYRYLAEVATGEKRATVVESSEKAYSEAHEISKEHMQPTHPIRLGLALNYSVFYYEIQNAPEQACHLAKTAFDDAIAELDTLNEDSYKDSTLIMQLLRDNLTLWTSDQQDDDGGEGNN
Procedure: To study the binding of the fluorescently labelled peptides to 14-3-3, Fluorescence Anisotropy (FA) assays were carried out.[23] In the case of binding, tumbling of the peptide with the attached fluorophore will slow down and the emitted light will be polarized. This will lead to a higher anisotropy.[79] For all experiments, 14-3-3γ was used as it was shown in multiple experiments to be the strongest binding variant suitable for experimental screening.[80] The FAM-labeled peptides and the 14-3-3γ FL protein were diluted in buffer (10 mM HEPES pH 7.4, 150 mM NaCl, 0.1% Tween20, 1 mg mL^−1 BSA).
Dilution series of 14-3-3γ proteins (starting at 500 μM) were made to 10 nM of the FAM-labeled peptides in black, round-bottom 384-microwell (Corning) in a final sample volume of 10 μL. Fluorescence anisotropy values were measured using a Tecan Spark Control at room temperature filter set lex: 485 ± 20 nm, lem: 535 ± 25 nm, mirror: Dichroic 510, flashes: 30, integration time: 40 μs, settle time: 1 μs; gain: optimized per peptide, and Z-position: calculated from well. Wells containing only FAM-peptide were used to set as G-factor. The KD values were obtained from fitting the data using Origin 2020 with a Sigmoid Hill1 function (using the Hill equation). Data shown is the average and standard deviation of triplicates. For dose–response curves on a linear scale seep SI Fig. S2.

[2] = target: T2, full-length (FL) human 14-3-3γ protein (human, UniProt P61981 1-247); assay: fluorescence polarisation; fluorescence anisotropy; dilution series of 14-3-3γ (starting at 500 μM) to 10 nM FAM-labeled peptide; 10 mM HEPES pH 7.4, 150 mM NaCl, 0.1% Tween20, 1 mg/mL BSA; room temperature; Hill fit; triplicates; details: both partners purified
T2 construct: 14-3-3 gamma, human, full length; also called 14-3-3γ FL
T2 sequence (looked up): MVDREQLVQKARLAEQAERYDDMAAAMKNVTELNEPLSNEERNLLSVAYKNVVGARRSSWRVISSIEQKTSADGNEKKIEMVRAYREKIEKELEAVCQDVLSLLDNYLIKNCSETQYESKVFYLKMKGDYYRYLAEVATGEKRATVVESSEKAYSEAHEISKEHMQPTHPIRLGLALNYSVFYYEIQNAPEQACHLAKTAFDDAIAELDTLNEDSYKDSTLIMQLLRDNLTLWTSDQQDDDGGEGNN

[3] = target: T2, full-length (FL) human 14-3-3γ protein; assay: as above; details: both partners purified; remark: listed apart in the source

CSCC[C@H](NC(=O)[C@H](CCCNC(=N)N)NC(=O)[C@H](CCCNC(=N)N)NC(=O)[C@H](CC(C)C)NC(=O)[C@H](CCC(=O)O)NC(=O)[C@H](CCCNC(=N)N)NC(=O)CNC(=O)CCCCCNC(=O)c1ccc2c(c1)C(=O)OC21c2ccc(O)cc2Oc2cc(O)ccc21)C(=O)N[C@@H](COP(=O)(O)O)C(=O)N[C@@H](CC(=O)O)C(=O)N[C@@H](CCC(=O)O)C(=O)N[C@@H](Cc1ccccc1)C(=O)N[C@H](C(=O)N[C@@H](CC(=O)O)C(=O)N[C@@H](CO)C(=O)N[C@@H](Cc1ccccc1)C(N)=O)C(C)C [Peptide 7] ({5FAM-Ahx}-GRELRRM[pS]DEFVDSF-NH2)
Kd ([1]; n = 3, read-out: Kd): > 100 µM

CC[C@H](C)[C@H](NC(=O)CNC(=O)[C@H](C)NC(=O)[C@H](CCC(=O)O)NC(=O)[C@H](CCC(=O)O)NC(=O)CCCCCNC(=O)c1ccc2c(c1)C(=O)OC21c2ccc(O)cc2Oc2cc(O)ccc21)C(=O)NCC(=O)N[C@@H](CC(=O)O)C(=O)N[C@H](C(=O)N1CCC[C@H]1C(=O)N[C@@H](CO)C(=O)N[C@@H](CC(C)C)C(=O)N[C@@H](CCC(=O)O)C(=O)N[C@@H](CC(=O)O)C(=O)N[C@@H](CCC(=O)O)C(=O)N[C@@H](C)C(N)=O)[C@@H](C)OP(=O)(O)O [Peptide 9] ({5FAM-Ahx}-EEAGIGD[pT]PSLEDEA-NH2)
Kd ([1]; n = 3): > 500 µM | Binding in the FA assay (in words) [1]: did not bind

C[C@H](NC(=O)[C@H](CO)NC(=O)[C@@H]1CCCN1C(=O)[C@H](CO)NC(=O)CNC(=O)[C@H](COP(=O)(O)O)NC(=O)[C@H](CCC(=O)O)NC(=O)[C@H](CO)NC(=O)[C@H](CCCNC(=N)N)NC(=O)[C@H](CCCCN)NC(=O)CNC(=O)[C@@H]1CCCN1C(=O)[C@H](C)NC(=O)CCCCCNC(=O)c1ccc2c(c1)C(=O)OC21c2ccc(O)cc2Oc2cc(O)ccc21)C(=O)NCC(=O)NCC(N)=O [Peptide 8] ({5FAM-Ahx}-APGKRSE[pS]GSPSAGG-NH2)
Kd ([1]; n = 3, read-out: Kd): > 100 µM

CC(C)C[C@H](NC(=O)CCCCCNC(=O)c1ccc2c(c1)C(=O)OC21c2ccc(O)cc2Oc2cc(O)ccc21)C(=O)N[C@@H](Cc1c[nH]cn1)C(=O)N[C@@H](CCC(=O)O)C(=O)N[C@@H](CCC(=O)O)C(=O)N[C@H](C(=O)N1CCC[C@H]1C(=O)N1CCC[C@H]1C(=O)N[C@H](C(=O)N[C@H](C(=O)N[C@@H](CO)C(=O)N[C@@H](CO)C(=O)N[C@@H](CC(=O)O)C(=O)N[C@@H](CO)C(=O)N[C@@H](CCC(=O)O)C(=O)N[C@@H](CCC(=O)O)C(N)=O)[C@@H](C)O)[C@@H](C)OP(=O)(O)O)[C@@H](C)O [Peptide 10] ({5FAM-Ahx}-LHEETPP[pT]TSSDSEE-NH2)
Kd ([1]; n = 3): > 500 µM | Binding in the FA assay (in words) [1]: did not bind

CC(C)C[C@H](NC(=O)[C@H](CO)NC(=O)[C@H](CC(=O)O)NC(=O)[C@H](CC(=O)O)NC(=O)CNC(=O)[C@H](CC(N)=O)NC(=O)[C@H](COP(=O)(O)O)NC(=O)[C@@H](NC(=O)[C@H](CCCCN)NC(=O)[C@H](CCCNC(=N)N)NC(=O)[C@H](CC(N)=O)NC(=O)[C@H](CC(N)=O)NC(=O)[C@H](CC(N)=O)NC(=O)[C@H](CC(N)=O)NC(=O)CCCCCNC(=O)c1ccc2c(c1)C(=O)OC21c2ccc(O)cc2Oc2cc(O)ccc21)[C@@H](C)O)C(=O)N[C@@H](Cc1ccccc1)C(N)=O [Peptide 5] ({5FAM-Ahx}-NNNNRKT[pS]NGDDSLF-NH2)
Kd ([1]; n = 3, read-out: Kd): > 500 µM | Binding in the FA assay (in words) [1]: no binding

B1: FOXO3 pS413 peptide (peptide 1), FAM-labelled (peptide)
peptide: {5FAM-Ahx}-GLMQRSS[pS]FPYTTKG-NH2
SMILES: CSCC[C@H](NC(=O)[C@H](CC(C)C)NC(=O)CNC(=O)CCCCCNC(=O)c1ccc2c(c1)C(=O)OC21c2ccc(O)cc2Oc2cc(O)ccc21)C(=O)N[C@@H](CCC(N)=O)C(=O)N[C@@H](CCCNC(=N)N)C(=O)N[C@@H](CO)C(=O)N[C@@H](CO)C(=O)N[C@@H](COP(=O)(O)O)C(=O)N[C@@H](Cc1ccccc1)C(=O)N1CCC[C@H]1C(=O)N[C@@H](Cc1ccc(O)cc1)C(=O)N[C@H](C(=O)N[C@H](C(=O)N[C@@H](CCCCN)C(=O)NCC(N)=O)[C@@H](C)O)[C@@H](C)O
notes: forkhead box O3 (FOXO3), seven residues before and after phosphosite 413; also called FOXO pS413; source: synthetic peptide, bought: GenScript
Kd [2]: 1.6 µM

GSRSRTP[pS]LPTPPTR [Tau-pS214 peptide]
Kd [3]: 16.4 ± 0.9 µM

KVTSKCG[pS]LGNIHHK [Tau-pS324 peptide]
Kd [3]: > 100 µM

B2: Tau pT245 peptide (peptide 2), FAM-labelled (peptide)
peptide: SAKSRLQ[pT]APVPMPD-NH2
modifications: not fully specified (N-terminus)
notes: Tau, seven residues before and after phosphosite 245; numbers count on: P10636-8; source: synthetic peptide, bought: GenScript
Kd [2]: 8.6 µM | Kd [3]: 8.5 ± 0.2 µM

B3: Notch 4 pS1847 peptide (peptide 3), FAM-labelled (peptide)
peptide: {5FAM-Ahx}-FPRARTV[pS]VSVPPHG-NH2
SMILES: CC(C)[C@H](NC(=O)[C@H](COP(=O)(O)O)NC(=O)[C@@H](NC(=O)[C@@H](NC(=O)[C@H](CCCNC(=N)N)NC(=O)[C@H](C)NC(=O)[C@H](CCCNC(=N)N)NC(=O)[C@@H]1CCCN1C(=O)[C@H](Cc1ccccc1)NC(=O)CCCCCNC(=O)c1ccc2c(c1)C(=O)OC21c2ccc(O)cc2Oc2cc(O)ccc21)[C@@H](C)O)C(C)C)C(=O)N[C@@H](CO)C(=O)N[C@H](C(=O)N1CCC[C@H]1C(=O)N1CCC[C@H]1C(=O)N[C@@H](Cc1c[nH]cn1)C(=O)NCC(N)=O)C(C)C
notes: Notch-4, seven residues before and after phosphosite 1847; also called NOTCH pS1847; source: synthetic peptide, bought: GenScript
Kd [2]: 70 µM

B4: BAD pS134 peptide (peptide 6), FAM-labelled (peptide)
peptide: {5FAM-Ahx}-KGLPRPK[pS]AGTATQM-NH2
SMILES: CSCC[C@H](NC(=O)[C@H](CCC(N)=O)NC(=O)[C@@H](NC(=O)[C@H](C)NC(=O)[C@@H](NC(=O)CNC(=O)[C@H](C)NC(=O)[C@H](COP(=O)(O)O)NC(=O)[C@H](CCCCN)NC(=O)[C@@H]1CCCN1C(=O)[C@H](CCCNC(=N)N)NC(=O)[C@@H]1CCCN1C(=O)[C@H](CC(C)C)NC(=O)CNC(=O)[C@H](CCCCN)NC(=O)CCCCCNC(=O)c1ccc2c(c1)C(=O)OC21c2ccc(O)cc2Oc2cc(O)ccc21)[C@@H](C)O)[C@@H](C)O)C(N)=O
notes: Bcl-2-associated agonist of cell death (BAD), seven residues before and after phosphosite 134; source: synthetic peptide, bought: GenScript
Kd [2]: 15.9 µM

B5: Tau pS198 peptide (peptide 4), FAM-labelled (peptide)
peptide: {5FAM-Ahx}-SGDRSGY[pS]SPGSPGT-NH2
SMILES: C[C@@H](O)[C@H](NC(=O)CNC(=O)[C@@H]1CCCN1C(=O)[C@H](CO)NC(=O)CNC(=O)[C@@H]1CCCN1C(=O)[C@H](CO)NC(=O)[C@H](COP(=O)(O)O)NC(=O)[C@H](Cc1ccc(O)cc1)NC(=O)CNC(=O)[C@H](CO)NC(=O)[C@H](CCCNC(=N)N)NC(=O)[C@H](CC(=O)O)NC(=O)CNC(=O)[C@H](CO)NC(=O)CCCCCNC(=O)c1ccc2c(c1)C(=O)OC21c2ccc(O)cc2Oc2cc(O)ccc21)C(N)=O
notes: Tau, seven residues before and after phosphosite 198; numbers count on: P10636-8; source: synthetic peptide, bought: GenScript
Kd [2]: 71 µM
